# System: 276233-004-R-J1-PDC KRAS spheroids with HUVEC/MSC, viability
# Test: Anticancer human tumor 276233-004-R-J1-PDC patient-derived colon adenocarcinoma cell line growth inhibition [KRAS2]
# Settings: for viability, T/C: stronger effect = lower value
# Summary of the method: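 KRAS-mutant tumor cells were grown as spheroids with HUVEC endothelial cells and human MSCs as stroma. Targeted agents were tested alone and with KRAS pathway inhibitors. Doses started at or near clinical Cmax, or 10 microM, descending half-log.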
# [1] = curve of first compound, second compound 0.1 µM
# [2] = curve of first compound, second compound 0.316 µM
# [3] = curve of first compound, second compound 1 µM
# [4] = curve of first compound, second compound 3.16 µM
# [5] = curve of first compound, second compound 10 µM
# [6] = second compound 0.1 µM, first compound 0.0316 µM
# [7] = second compound 0.1 µM, first compound 0.1 µM
# [8] = second compound 0.1 µM, first compound 0.316 µM
# [9] = second compound 0.1 µM, first compound 1 µM
# [10] = second compound 0.1 µM, first compound 3.16 µM
# [11] = second compound 0.1 µM, first compound 10 µM
# [12] = second compound 0.316 µM, first compound 0.0316 µM
# [13] = second compound 0.316 µM, first compound 0.1 µM
# [14] = second compound 0.316 µM, first compound 0.316 µM
# [15] = second compound 0.316 µM, first compound 1 µM
# [16] = second compound 0.316 µM, first compound 3.16 µM
# [17] = second compound 0.316 µM, first compound 10 µM
# [18] = second compound 1 µM, first compound 0.0316 µM
# [19] = second compound 1 µM, first compound 0.1 µM
# [20] = second compound 1 µM, first compound 0.316 µM
# [21] = second compound 1 µM, first compound 1 µM
# [22] = second compound 1 µM, first compound 3.16 µM
# [23] = second compound 1 µM, first compound 10 µM
# [24] = second compound 3.16 µM, first compound 0.0316 µM
# [25] = second compound 3.16 µM, first compound 0.1 µM
# [26] = second compound 3.16 µM, first compound 0.316 µM
# [27] = second compound 3.16 µM, first compound 1 µM
# [28] = second compound 3.16 µM, first compound 3.16 µM
# [29] = second compound 3.16 µM, first compound 10 µM
# [30] = second compound 10 µM, first compound 0.0316 µM
# [31] = second compound 10 µM, first compound 0.1 µM
# [32] = second compound 10 µM, first compound 0.316 µM
# [33] = second compound 10 µM, first compound 1 µM
# [34] = second compound 10 µM, first compound 3.16 µM
# [35] = second compound 10 µM, first compound 10 µM
# 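Note: cells exposed to agents for seven days before viability read.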
# 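Throughout, for viability, T/C: 100% = DMSO vehicle control wells and lower values mean fewer viable cells.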
smiles,measurement,setting,value
CCNC(=O)CC1N=C(c2ccc(Cl)cc2)c2cc(OC)ccc2-n2c(C)nnc21 (stereo not drawn) + COc1cc2nc(C)nc(NC(C)c3cc(N)cc(C(F)(F)F)c3)c2cc1OC1CCOC1,IC50,[1],> 10000 nM
same,IC50,[2],2460 nM
same,IC50,[3],1190 nM
same,IC50,[4],2340 nM
same,IC50,[5],< 31.6 nM
same,"viability, T/C",[6],101%
same,"viability, T/C",[7],67.1%
same,"viability, T/C",[8],61.4%
same,"viability, T/C",[9],55%
same,"viability, T/C",[10],50.4%
same,"viability, T/C",[11],49.2%
same,"viability, T/C",[12],94.6%
same,"viability, T/C",[13],80.2%
same,"viability, T/C",[14],69.5%
same,"viability, T/C",[15],54.5%
same,"viability, T/C",[16],45.7%
same,"viability, T/C",[17],48.2%
same,"viability, T/C",[18],84.7%
same,"viability, T/C",[19],77.7%
same,"viability, T/C",[20],60.3%
same,"viability, T/C",[21],42.7%
same,"viability, T/C",[22],44%
same,"viability, T/C",[23],34.4%
same,"viability, T/C",[24],62.3%
same,"viability, T/C",[25],69.7%
same,"viability, T/C",[26],62.2%
same,"viability, T/C",[27],50.8%
same,"viability, T/C",[28],46%
same,"viability, T/C",[29],43.2%
same,"viability, T/C",[30],31.6%
same,"viability, T/C",[31],33.9%
same,"viability, T/C",[32],22.6%
same,"viability, T/C",[33],12.9%
same,"viability, T/C",[34],11.1%
same,"viability, T/C",[35],8.17%
CC1(C)CCC(CN2CCN(c3ccc(C(=O)NS(=O)(=O)c4ccc(NCC5CCOCC5)c([N+](=O)[O-])c4)c(Oc4cnc5[nH]ccc5c4)c3)CC2)=C(c2ccc(Cl)cc2)C1,"viability, T/C",compound 0.0316 µM,93.5% [middle of 5 runs]
same,"viability, T/C",compound 0.1 µM,88.8% [middle of 5 runs]
same,"viability, T/C",compound 0.316 µM,102% [middle of 5 runs]
same,"viability, T/C",compound 1 µM,93.4% [middle of 5 runs]
same,IC50,curve of compound,> 10000 nM
CC1COCCN1c1cc(-c2ccnn2C)c2ccnc(-c3ccn[nH]3)c2n1 (stereo not drawn) + CC1OCC2(CCN(c3cnc(Sc4ccnc(N)c4Cl)c(N)n3)CC2)C1N,IC50,[1],> 3160 nM
same,IC50,[2],2180 nM
same,IC50,[3],2830 nM
same,IC50,[4],632 nM
same,IC50,[5],737 nM
same,"viability, T/C","second compound 0.1 µM, first compound 0.01 µM",107%
same,"viability, T/C",[6],96%
same,"viability, T/C",[7],78.3%
same,"viability, T/C",[8],86.2%
same,"viability, T/C",[9],60.9%
same,"viability, T/C",[10],56.1%
same,"viability, T/C","second compound 0.316 µM, first compound 0.01 µM",76.9%
same,"viability, T/C",[12],106%
same,"viability, T/C",[13],84.8%
same,"viability, T/C",[14],74.6%
same,"viability, T/C",[15],61.1%
same,"viability, T/C",[16],45%
same,"viability, T/C","second compound 1 µM, first compound 0.01 µM",87.7%
same,"viability, T/C",[18],73.2%
same,"viability, T/C",[19],67.9%
same,"viability, T/C",[20],68.5%
same,"viability, T/C",[21],57.4%
same,"viability, T/C",[22],47.5%
same,"viability, T/C","second compound 3.16 µM, first compound 0.01 µM",64.1%
same,"viability, T/C",[24],86.2%
same,"viability, T/C",[25],64.8%
same,"viability, T/C",[26],57%
same,"viability, T/C",[27],46.8%
same,"viability, T/C",[28],40.7%
same,"viability, T/C","second compound 10 µM, first compound 0.01 µM",61.1%
same,"viability, T/C",[30],66.4%
same,"viability, T/C",[31],56.6%
same,"viability, T/C",[32],49.2%
same,"viability, T/C",[33],52.9%
same,"viability, T/C",[34],41.1%
CNCc1ccccc1-c1csc(C(C)Nc2nc(C)nc3cc(OC)c(OC)cc23)c1 (stereo not drawn),"viability, T/C",compound 10 µM,1.13% [middle of 15 runs]
same,IC50,"compound alone, run of 07/19/2021",1.25 µM [middle of 4 runs]
same,IC50,"compound alone, run of 07/26/2021",1.67 µM [middle of 5 runs]
COc1cc(Nc2ncc3c(n2)-c2ccc(Cl)cc2C(c2c(F)cccc2OC)=NC3)ccc1C(=O)O + CNCc1ccccc1-c1csc(C(C)Nc2nc(C)nc3cc(OC)c(OC)cc23)c1,IC50,[1],> 10000 nM
same,IC50,[2],> 10000 nM
same,IC50,[3],> 10000 nM
same,IC50,[4],< 31.6 nM
same,IC50,[5],< 31.6 nM
same,"viability, T/C",[6],103%
same,"viability, T/C",[7],110%
same,"viability, T/C",[8],75.7%
same,"viability, T/C",[9],104%
same,"viability, T/C",[10],95.7%
same,"viability, T/C",[11],84.2%
same,"viability, T/C",[12],107%
same,"viability, T/C",[13],93%
same,"viability, T/C",[14],99.1%
same,"viability, T/C",[15],97.7%
same,"viability, T/C",[16],91.9%
same,"viability, T/C",[17],94.6%
same,"viability, T/C",[18],80.4%
same,"viability, T/C",[19],86.1%
same,"viability, T/C",[20],111%
same,"viability, T/C",[21],85%
same,"viability, T/C",[22],72.1%
same,"viability, T/C",[23],66.3%
same,"viability, T/C",[24],5.21%
same,"viability, T/C",[25],1.97%
same,"viability, T/C",[26],1.67%
same,"viability, T/C",[27],4.48%
same,"viability, T/C",[28],4.94%
same,"viability, T/C",[29],0.76%
same,"viability, T/C",[30],2.44%
same,"viability, T/C",[31],3.58%
same,"viability, T/C",[32],0.22%
same,"viability, T/C",[33],0.22%
same,"viability, T/C",[34],0.73%
same,"viability, T/C",[35],0.99%
